From US20040048791A1, “Method for treating neoplastic cells using cycloprodigiosin or salt thereof” (priority 2002, published 2004)
Entries after “also recorded” stand apart in the source; their conditions may differ. Counter-ions that a name gives are not always drawn.

Experiments:
[1] = biological target: casein kinase II (CKII) (Homo sapiens, UniProt P68400); test: Casein kinase II activity in vitro; format: biochemical; conditions: FIG. 12, hydrochloride
Source text: Accordingly, in order to identify the p65 kinase which cPrG-HCl suppressed, the effect of cPrG-HCl on PKA (FIG. 13), casein kinase II (CKII) (FIG. 12), and IκB kinase (IKK) (FIG. 14) was studied in vitro.

[2] = system: NF-κB; test: NF-κB luciferase reporter assay in U373, 293, COS7 and MKN45 cells; format: cell-based, human; African green monkey; conditions: all the cells tested: U373, 293, COS7, MKN45; FIGS. 6A to 6F
Method: In order to find out whether the suppression of NF-κB and AP-1 activation was specific to HeLa cells used above, analysis was made with various kind of cells. The cells used were U373 cells (human brain tumor cells), 293 cells (human embryo-derived kidney cells), COS7 cells (African green monkey kidney-derived cells), and MKN45 cells (human gastric tumor cells).
The NF-κB reporter plasmid pIG3Luc was incorporated into cells by transfection. After 24 hours, the cells were pretreated with cPrG-HCl at a specified concentration for 1 hour and then stimulated with TNFα (20 ng/ml) or PMA (1 μg/ml) for 4 hours, after which luciferase activity was measured. Each activity was corrected for the amount of protein.

[3] = system: AP-1; test: AP-1 luciferase reporter assay (pAPLuc) in HeLa cells; format: cell-based
Method: In the same manner as described in Experimental example 1, HeLa cells were transfected with the AP-1 reporter gene plasmid pAPLuc. After 20 hours, the cells were pretreated with cPrG-HCl (1 μM) for 1 hour and then stimulated with TNFα (20 ng/ml) or PMA (1 μg/ml) for 4 hours, after which, luciferase activity was measured. Each activity was corrected for the amount of protein.

[4] = system: NF-κB; test: EMSA of NF-κB DNA binding activity in nuclear extract; format: cell-based
Method: Electrophoretic mobility shift assay (EMSA): Nuclear extracts were prepared by the method of Schreiber, et al (Schreiber, E., Matthias, P., Muller, M. M. and Schaffner, W. (1989) Nucleic Acids Res. 17, 6419). Briefly, cells were solubilized with a buffer (10 mM HEPES-NaOH, pH 7.9, 10 mM KCl, 0.1 mM EDTA, 0.1 mM EGTA, 0.4% NP-40, 0.5 mM PMSF, 1 μg/ml aprotinin, 1 μg/ml leupeptin, 1 μg/ml pepstatin, 1 mM DTT), and then centrifuged at 10,000 rpm for 15 min. The pellets were resuspended in a buffer (20 mM HEPES-NaOH, pH 7.9, 400 mM NaCl, 1 mM EDTA, 1 mM EGTA, 1 mM PMSF, 1 μg/ml aprotinin, 1 μg/ml leupeptin, 1 μg/ml pepstatin, 1 μg/ml chymostatin, 1 μg/ml antipain, 1 mM DTT), and then centrifuged at 15,000 rpm for 15 min. […] The samples were electrophoresed on an 8% polyacrylamide gel and analyzed by an Imaging plate (Fuji Film).
In order to find out the mechanism of NF-κB suppression by cPrG-HCl, the effect on the signal transduction system, which functions upstream of NF-κB, was analyzed. […] Next, the effect of cPrG-HCl on phosphorylation and degradation of IκB was analyzed by Western blotting using anti-IκB antibody (FIG. 2E). […] Accordingly, nuclear translocation of NF-κB was analyzed by Western blotting using p65 and p50 which are components of NF-κB (FIG. 2F). […] Further, the state of NF-κB activation in the nucleus was analyzed by EMSA (electrophoretic mobility shift assay) (FIG. 2G). […]

[5] = system: NF-κB; conditions: earlier abstract of the inventors (Kamata et al., 2000); cited from earlier work

Chain of casein kinase II (CKII) (P68400 whole entry): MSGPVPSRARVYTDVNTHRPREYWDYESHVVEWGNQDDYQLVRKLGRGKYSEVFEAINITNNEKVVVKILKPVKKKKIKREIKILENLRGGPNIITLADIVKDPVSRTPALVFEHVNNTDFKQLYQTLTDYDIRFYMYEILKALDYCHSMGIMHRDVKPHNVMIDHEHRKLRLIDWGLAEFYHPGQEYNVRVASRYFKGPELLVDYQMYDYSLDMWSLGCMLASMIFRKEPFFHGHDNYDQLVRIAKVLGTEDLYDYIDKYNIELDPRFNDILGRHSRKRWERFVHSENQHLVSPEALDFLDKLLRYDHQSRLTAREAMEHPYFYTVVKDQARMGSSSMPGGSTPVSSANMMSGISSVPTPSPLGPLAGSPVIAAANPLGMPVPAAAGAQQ

COC1=CC(c2ccc[nH]2)=N/C1=C\c1[nH]c(C)c2c1C(C)CCC2 (stereo not shown) [cPrG-HCl, Cycloprodigiosin hydrochloride]
effect on casein kinase II (CKII) activity [1]: does not directly suppress; also recorded: no suppressive effect | NF-κB transcriptional activation [2]: suppressed | AP-1 transcriptional activity ([3]; HeLa cells, 1 μM, TNFα (20 ng/ml) or PMA (1 μg/ml), FIG. 5): significantly suppressed | PMA-induced AP-1 transcriptional activation ([3]; in the presence of imidazole): suppressed | DNA binding activation of NF-κB ([4]; PMA stimulation, FIG. 3B): inhibited neither | DNA binding activity of NF-κB ([4]; TNFα stimulation, FIG. 2G): did not suppress | nuclear translocation of NF-κB [5]: no suppressive effect
